For 14 compounds, microsomal CLint and IC50 results are on record in patent publication EP4725941A1, “ARYLAMIDE DERIVATIVE HAVING ANTITUMOR ACTIVITY” (priority 2020, dated 2021).

The nature of data set [1]: Human liver microsome stability. In kind it is in vitro ADME. To be noted: human liver microsomes, pH 7.4.
The subject of the next data set is NCI-H2122. Put plainly: Cell proliferation-inhibiting activity (ATP in viable cells, CellTiter-Glo), NCI-H2122. In kind it is cell-based, human. To be noted: NCI-H2122, 96 h; human lung cancer cells, 4 days; read-out: NCI-H2122 IC50.
The target in another data set is T1, MEK1 (Homo sapiens, UniProt Q02750).
T1 construct: purchased Thermo Fisher Scientific Inc. (MEK1, CRAF); Carna Biosciences, Inc. (ERK2)
The data set is described as follows: MEK1-inhibiting activity, fluorescent polarization method (CRAF/MEK1/ERK2 cascade, IMAP). In kind it is biochemical. The protocol:
The MEK1-inhibiting activity of the compounds listed in Table 3 below were evaluated by the fluorescent polarization method as described below.

The target in another data set is T2, BRAF (Homo sapiens, UniProt P15056).
T2 construct: purchased Eurofins Genomics KK; (BRAF); Thermo Fisher Scientific Inc. (MEK1)
Put plainly: BRAF-inhibiting activity, time-resolved fluorescence-fluorescence resonance energy transfer assay. In kind it is biochemical. The protocol:
The BRAF-inhibiting activity of the compounds listed in Table 3 below was evaluated by the time-resolved fluorescence-fluorescence resonance energy transfer assay as described below.

In another data set the test system is Calu-6. Put plainly: Cell proliferation-inhibiting activity (ATP in viable cells, CellTiter-Glo), Calu-6. In kind it is cell-based, human. To be noted: Calu-6, 96 h; human lung cancer cells, 4 days; read-out: Calu-6 IC50.
A further data set relates to A549. Put plainly: Cell proliferation-inhibiting activity (ATP in viable cells, CellTiter-Glo), A549. In kind it is cell-based, human. To be noted: A549, 96 h; human lung cancer cells, 4 days; read-out: A549 IC50.

Read-outs that look alike come from different tables or passages of the source.

T1 sequence (Q02750 whole entry): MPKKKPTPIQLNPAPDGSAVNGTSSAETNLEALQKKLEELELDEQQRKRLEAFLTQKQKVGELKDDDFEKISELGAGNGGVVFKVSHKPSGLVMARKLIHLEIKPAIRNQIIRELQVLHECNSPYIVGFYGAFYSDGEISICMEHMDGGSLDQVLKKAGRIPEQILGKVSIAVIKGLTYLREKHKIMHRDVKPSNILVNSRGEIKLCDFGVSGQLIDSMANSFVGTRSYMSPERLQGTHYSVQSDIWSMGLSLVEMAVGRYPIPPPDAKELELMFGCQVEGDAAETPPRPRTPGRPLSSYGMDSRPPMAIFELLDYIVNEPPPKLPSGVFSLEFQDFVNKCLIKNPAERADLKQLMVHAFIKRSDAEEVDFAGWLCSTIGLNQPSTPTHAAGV
T2 sequence (P15056 417-766 limits assumed): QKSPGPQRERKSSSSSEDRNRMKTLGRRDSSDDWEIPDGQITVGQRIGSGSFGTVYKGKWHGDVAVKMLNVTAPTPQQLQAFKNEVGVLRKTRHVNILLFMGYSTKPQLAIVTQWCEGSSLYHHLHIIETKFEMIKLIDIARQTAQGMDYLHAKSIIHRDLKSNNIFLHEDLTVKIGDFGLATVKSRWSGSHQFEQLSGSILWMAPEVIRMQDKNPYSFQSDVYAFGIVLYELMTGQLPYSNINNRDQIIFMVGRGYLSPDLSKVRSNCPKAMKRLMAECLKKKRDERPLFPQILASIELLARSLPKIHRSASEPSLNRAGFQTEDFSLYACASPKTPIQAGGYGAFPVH

In the case of `CNS(=O)(=O)Nc1nccc(Cc2cc(C(=O)N[C@@H]3C[C@H]3C)c(Nc3ccc(I)cc3F)c(F)c2F)c1F` (racemic) [Compound B-5, 3,4-Difluoro-2-(2-fluoro-4-iodoanilino)-5-[[3-fluoro-2-(methylsulfamoylamino)pyridin-4-yl]methyl]-N-[(1R, 2R)-(+/-)-2-methylcyclopropyl]benzamide (racemate)], the intrinsic metabolic clearance (microsomal CLint) at 0.99 µM in data set [1] stood at 22 µL/min/mg. For the same compound, the IC50 was found to be 5 nM with NCI-H2122; 93 nM at MEK1; 6 nM on BRAF (Table 3; read-out: BRAF IC50); 29 nM with Calu-6; 7 nM with A549.
Turning to `NC(=O)c1cc(Cc2ccnc(NS(=O)(=O)NCCF)c2F)c(F)c(F)c1Nc1ccc(I)cc1F` [Compound A-42, 3,4-difluoro-5-[[3-fluoro-2-(2-fluoroethylsulfamoylamino)pyridin-4-yl]methyl]-2-(2-fluoro-4-iodoanilino)benzamide], the microsomal CLint at 0.99 µM in data set [1] was 6 µL/min/mg. The IC50 with NCI-H2122 was found to be 7 nM; at MEK1 (Table 3, read-out: MEK1 IC50) it was 18 nM; at BRAF (read-out: BRAF IC50; Table 3), 6 nM; in the data set on Calu-6, 68 nM; in the data set with A549, 9 nM.
`CCS(=O)(=O)Nc1cccc(Cc2cc(C(N)=O)c(Nc3ccc(I)cc3F)c(F)c2F)c1` [Compound F-2, 5-[[3-(Ethylsulfonylamino)phenyl]methyl]-3,4-difluoro-2-(2-fluoro-4-iodoanilino)benzamide] displayed an intrinsic clearance (microsomal CLint) at 0.99 µM in data set [1] of 15 µL/min/mg. In addition, the IC50 with NCI-H2122 amounted to 8 nM; on MEK1 (Table 3, read-out: MEK1 IC50), 383 nM; on BRAF (read-out: BRAF IC50; Table 3), 5 nM; in the data set on Calu-6 it was 66 nM; in the data set with A549, 8 nM.
Consider `CC1(NS(=O)(=O)Nc2nccc(Cc3cc(C(N)=O)c(Nc4ccc(I)cc4F)c(F)c3F)c2F)CCC1` [Compound A-35, 3,4-difluoro-2-(2-fluoro-4-iodoanilino)-5-[[3-fluoro-2-[(1-methylcyclobutyl)sulfamoylamino]pyridin-4-yl]methyl]benzamide], for which the intrinsic clearance (microsomal CLint) at 0.99 µM in data set [1] came out at 15 µL/min/mg. The IC50 is 4 nM with NCI-H2122; 66 nM on MEK1 (Table 3, read-out: MEK1 IC50); 28 nM on BRAF (read-out: BRAF IC50; Table 3); 34 nM with Calu-6; 21 nM with A549.
In data set [1], `CC(C)CNS(=O)(=O)Nc1nccc(Cc2cc(C(N)=O)c(Nc3ccc(I)cc3F)c(F)c2F)c1F` [Compound A-34, 3,4-difluoro-2-(2-fluoro-4-iodoanilino)-5-[[3-fluoro-2-(2-methylpropylsulfamoylamino)pyridin-4-yl]methyl]benzamide] came in with a microsomal CLint at 0.99 µM of 17 µL/min/mg. The IC50 in the data set with NCI-H2122 was found to be 12 nM; on MEK1 (Table 3, read-out: MEK1 IC50), 81 nM; at BRAF (read-out: BRAF IC50; Table 3), 3 nM; with Calu-6, 79 nM; with A549, 27 nM.
In data set [1], `CNS(=O)(=O)Nc1nccc(Cc2cc(C(=O)NC3CC3)c(Nc3ccc(I)cc3F)n(C)c2=O)c1F` [Compound J-5, N-cyclopropyl-2-(2-fluoro-4-iodoanilino)-5-[[3-fluoro-2-(methylsulfamoylamino)pyridin-4-yl]methyl]-1-methyl-6-oxopyridine-3-carbo xamide] returned an intrinsic metabolic clearance (microsomal CLint) at 0.99 µM of 20 µL/min/mg. Also, the IC50 was found to be 4 nM in the data set with NCI-H2122; 117 nM on MEK1 (Table 3, read-out: MEK1 IC50); 8 nM on BRAF (read-out: BRAF IC50; Table 3); 29 nM in the data set on Calu-6; 7 nM in the data set on A549.
Regarding `CONC(=O)c1cc(Cc2cccc(NS(=O)(=O)C3(C)CC3)c2F)c(F)c(F)c1Nc1ccc(I)cc1F` [Compound E-5, 3,4-Difluoro-2-(2-fluoro-4-iodoanilino)-5-[[2-fluoro-3-[(1-methylcyclopropyl)sulfonylamino]phenyl]methyl]-N-methoxybenzamide], the intrinsic metabolic clearance (microsomal CLint) at 0.99 µM in data set [1] worked out at 78 µL/min/mg. The IC50 in the data set on NCI-H2122 was determined as 3 nM; on MEK1 (Table 3, read-out: MEK1 IC50) it was 19 nM; on BRAF (read-out: BRAF IC50; Table 3) it was 8 nM; with Calu-6 it was 17 nM; in the data set with A549 it was 5 nM.
On to `CNS(=O)(=O)Nc1nccc(Cc2cc(C(=O)NOC)c(Nc3ccc(Br)cc3F)c(F)c2F)c1F` [Compound G-3, 2-(4-Bromo-2-fluoroanilino)-3,4-difluoro-5-[[3-fluoro-2-(methylsulfamoylamino)pyridin-4-yl]methyl]-N-methoxybenzamide], for which the intrinsic clearance (microsomal CLint) at 0.99 µM in data set [1] stood at 29 µL/min/mg. Besides, the IC50 in the data set with NCI-H2122 is 2 nM; on MEK1 (Table 3, read-out: MEK1 IC50), 15 nM; on BRAF (read-out: BRAF IC50; Table 3), 5 nM; with Calu-6, 47 nM; with A549 it was 7 nM.
In turn, `O=C(NC1CC1)c1cc(Cc2ccnc(NS(=O)(=O)NC3CC3)c2F)c(F)c(F)c1Nc1ccc(I)cc1Cl` [Compound B-12, 2-(2-Chloro-4-iodoanilino)-N-cyclopropyl-5-[[2-(cyclopropylsulfamoylamino)-3-fluoropyridin-4-yl]methyl]-3,4-difluorobenzamide] showed an intrinsic clearance (microsomal CLint) at 0.99 µM in data set [1] of 39 µL/min/mg. In addition, the IC50 was determined as 8 nM with NCI-H2122; 61 nM at MEK1 (Table 3, read-out: MEK1 IC50); 8 nM at BRAF (read-out: BRAF IC50; Table 3); 30 nM with Calu-6; 14 nM in the data set with A549.
`CNS(=O)(=O)Nc1nccc(Cc2cc(C(N)=O)c(Nc3ccc(I)cc3F)n3cncc23)c1F` [Compound M-1, 5-(2-Fluoro-4-iodoanilino)-8-[[3-fluoro-2-(methylsulfamoylamino)pyridin-4-yl]methyl]imidazo[1,5-a]pyridine-6-carboxamide] registered a microsomal CLint at 0.99 µM in data set [1] of 59 µL/min/mg. For the same compound, the IC50 in the data set on NCI-H2122 stood at 13 nM; at MEK1 (Table 3, read-out: MEK1 IC50), 5 nM; on BRAF (read-out: BRAF IC50; Table 3), 4 nM; with Calu-6 it was 28 nM; in the data set on A549 it was 27 nM.
For the compound `CC(C)(C)ONC(=O)c1cc(Cc2cccc(NS(=O)(=O)NC3CC3)c2F)c(F)c(F)c1Nc1ccc(I)cc1Cl` [Compound E-12, 2-(2-Chloro-4-iodoanilino)-5-[[3-(cyclopropylsulfamoylamino)-2-fluor ophenyl]methyl]-3,4-difluoro-N-[(2-methylpropan-2-yl)oxy]benzamide], in data set [1], the intrinsic metabolic clearance (microsomal CLint) at 0.99 µM was found to be 160 µL/min/mg. In addition, the IC50 in the data set with NCI-H2122 is 2 nM; at MEK1 (Table 3, read-out: MEK1 IC50), 260 nM; at BRAF (read-out: BRAF IC50; Table 3), 17 nM; in the data set on Calu-6, 8 nM; with A549, 3 nM.
In data set [1], `COCC1(S(=O)(=O)Nc2cccc(Cc3cc(C(N)=O)c(Nc4ccc(I)cc4F)c(F)c3F)c2F)CC1` [Compound E-19] gave a microsomal CLint at 0.99 µM of 115 µL/min/mg. In addition, the IC50 in the data set with NCI-H2122 came to 9 nM; on MEK1 (Table 3, read-out: MEK1 IC50) it was 332 nM; on BRAF (read-out: BRAF IC50; Table 3) it was 34 nM; in the data set on Calu-6, 87 nM; in the data set with A549, 9 nM.
In turn, `CCS(=O)(=O)Nc1cccc(Cc2cc(C(N)=O)c(Nc3ccc(I)cc3F)c(F)c2F)c1F` [Compound D-4, 5-[[3-(ethylsulfonylamino)-2-fluorophenyl]methyl]-3,4-difluoro-2-(2-fluoro-4-iodoanilino)benzamide] returned a microsomal CLint at 0.99 µM in data set [1] of 9 µL/min/mg. Besides, the IC50 was 5 nM with NCI-H2122; 196 nM on MEK1 (Table 3, read-out: MEK1 IC50); 3 nM on BRAF (read-out: BRAF IC50; Table 3); 67 nM with Calu-6; 16 nM with A549.
As to `CCS(=O)(=O)Nc1cccc(Cc2cc(C(N)=O)c(Nc3ccc(I)cc3F)n(C)c2=O)c1F` [Compound K-10, 5-[[3-(Ethylsulfonylamino)-2-fluorophenyl]methyl]-2-(2-fluoro-4-iodoanilino)-1-methyl-6-oxopyridine-3-carboxamide], in data set [1], the microsomal CLint at 0.99 µM stood at 69 µL/min/mg. Further, the concentration for half-maximal inhibition (IC50) in the data set on NCI-H2122 is 16 nM; on MEK1 (Table 3, read-out: MEK1 IC50) it was 128 nM; at BRAF (read-out: BRAF IC50; Table 3) it was 8 nM; in the data set with Calu-6, 81 nM; in the data set with A549 it was 25 nM.
